The values below come from article PMC11279468, “Exploring a New Generation of Pyrimidine and Pyridine Derivatives as Anti-Influenza Agents Targeting the Polymerase PA–PB1 Subunits Interaction” (Pharmaceutics, 2024).

Series [1] concerns the target T1, PA–PB1 interaction (6His-PA(239–716) / GST-PB1(1–25)) (Influenza A virus, UniProt P03433). The experiment in a line: biochemical. It counts as binding.
A further series is described as follows: in vitro. The settings on record: dog.
The test system of series [2] is Influenza virus strain A/PR/8/34 (H1N1). The series can be described thus: microbe, parasite or virus in culture. The settings on record: unidentified influenza virus, MDCK, read-out: EC50 (PRA).
The target in series [3] is T1, PA–PB1 interaction (6His-PA(239–716) / GST-PB1(1–25)).
Series [4] deals with Influenza virus strain A/PR/8/34 (H1N1). As to conditions: plaque reduction assay in MDCK cells; cited from earlier work. Background: Plaques are areas of infected cells; plaque reduction assays count them against a control.
The subject of the next series is MDCK cells. As to conditions: cited from earlier work.

Like-named read-outs stand apart in the source and are kept apart here.

Procedure for in vitro: The cytotoxicity of compounds was tested in MDCK cells using the 3-(4,5-dimethylthiazol-2-yl)-2,5-diphenyl tetrazolium bromide (MTT) method, as previously reported [32]. Briefly, MDCK cells (seeded at a density of 2 × 10^4 per well) were grown in 96-well plates for 24 h and then treated with serial dilutions of test compounds, or DMSO as a control, in DMEM supplemented with 10% FBS. After incubation at 37 °C for 48 h, 5 mg/mL of MTT (Sigma, Tokyo, Japan) in PBS was added into each well and incubated at 37 °C for a further 4 h. Successively, a solubilization solution was added to lyse the cells and incubated overnight at 37 °C. Finally, optical density was read at the wavelength of 570 nm on a microtiter plate reader (MultiSkan FC, ThermoFisher Scientific).

As for `Cc1cccc(NC(=O)CSc2nc(-c3ccc(F)cc3)cc(-c3ccc(F)cc3)n2)c1` [Compound 2b, 2-{[4,6-Bis(4-fluorophenyl)pyrimidin-2-yl]thio}-N-(m-tolyl)acetamide], the melting point (as a rule, the temperature, or range, at which the solid turns liquid) lay within 210 to 211 °C. Moreover, the IC50 (in general, the point on the concentration scale where inhibition reaches its midpoint) in series [1] worked out at 137 ± 35 µM. This compound also returned a CC50 at 48 h in the series “in vitro” greater than 250 µM. Besides, in series [2], the EC50 (as a rule, the midpoint of the concentration-response curve) came out at 62.5 ± 4.3 µM.

`COC(=O)[C@H](Cc1c[nH]cn1)NC(=O)CSc1nc(-c2ccccc2)cc(-c2ccc(F)cc2)n1` [Compound 3d, Methyl (2-((4-(4-fluorophenyl)-6-phenylpyrimidin-2-yl)thio)acetyl)-L-histidinate]: the melting point was 77 to 78 °C. In series [1], the IC50 worked out at 70 ± 2.8 µM. The compound also gave a CC50 at 48 h in “in vitro” of 98 ± 11.3 µM. Also, the EC50 in series [2] is greater than 100 µM.

As for `Cc1cccc(NC(=O)CSc2nc(-c3ccc(F)cc3)cc(-c3ccc(Cl)cc3)n2)c1` [Compound 2e, 2-{[4-(4-Chlorophenyl)-6-(4-fluorophenyl)pyrimidin-2-yl]thio}-N-(m-tolyl)acetamide], the melting point was 213 to 217 °C. Further, in series [1], the IC50 was determined as 125 ± 37 µM. The CC50 at 48 h in “in vitro” is 206 ± 12 µM. Also, the EC50 in series [2] came out at 29.5 ± 0.7 µM.

In turn, `Cc1cccc(NC(=O)CSc2nc(-c3ccc(F)cc3)cc(-c3cccc4ccccc34)n2)c1` [Compound 2h, 2-{[4-(4-Fluorophenyl)-6-(1-naphthyl)pyrimidin-2-yl]thio}-N-(3-methylphenyl)acetamide] registered a melting point of 145 to 147 °C. In series [1], the IC50 was greater than 200 µM and the “activity as PA–PB1 disruptors (in words)” value is on record as “lack of activity as PA–PB1 disruptors”. For the same compound, the CC50 at 48 h in “in vitro” was greater than 250 µM. Also, the EC50 in series [2] came to 14.8 ± 1.6 µM.

Take `Cc1cccc(NC(=O)CSc2nc(-c3ccccc3)cc(-c3cccc4ccccc34)n2)c1` [Compound 2f, 2-{[4-(Naphthalen-1-yl)-6-phenylpyrimidin-2-yl)thio)-N-(m-tolyl)acetamide]: the melting point fell in the range of 147 to 148 °C. Moreover, in series [1], the IC50 was greater than 200 µM and the “activity as PA–PB1 disruptors (in words)” value is “lack of activity as PA–PB1 disruptors”. This compound also came in with a CC50 at 48 h in “in vitro” greater than 250 µM. In addition, in series [2], the EC50 is 21.1 ± 8 µM.

In turn, `Cc1cccc(NC(=O)CSc2nc(-c3ccc(Cl)cc3)cc(-c3cccc4ccccc34)n2)c1` [Compound 2g, 2-{[4-(4-Chlorophenyl)-6-(naphthalen-1-yl)pyrimidin-2-yl]thio}-N-(m-tolyl)acetamide] returned a melting point of 103 to 107 °C. This compound also displayed an IC50 in series [1] greater than 200 µM. For the same compound, in the series “in vitro”, the CC50 at 48 h was greater than 250 µM. For the same compound, in series [2], the EC50 is greater than 100 µM.

`Cc1cccc(NC(=O)CSc2cc(-c3ccc(Cl)cc3)cc(Sc3ccccc3)n2)c1` [Compound 2n, 2-{[4-(4-chlorophenyl)-6-(phenylthio)pyridin-2-yl]thio}-N-(m-tolyl)acetamide] displayed a melting point of 93 to 95 °C. For the same compound, half-maximal inhibition in series [1] (IC50) was put at 87 ± 15.7 µM. The CC50 at 48 h in “in vitro” was greater than 250 µM. In addition, in series [2], the EC50 stood at 62.9 ± 13.2 µM.

As for `COC(=O)[C@@H](NC(=O)CSc1cc(-c2ccccc2)cc(-c2ccccc2)n1)C(C)C` [Compound 3i, Methyl (2-((4,6-diphenylpyridin-2-yl)thio)acetyl)-L-valinate], the melting point lay within 63 to 64 °C. Further, the IC50 in series [1] is greater than 200 µM.

`CC[C@H](C)[C@H](NC(=O)CSc1cc(-c2ccccc2)cc(-c2ccc(F)cc2)n1)C(=O)OC` [Compound 3l, Methyl (2-((6-(4-fluorophenyl)-4-phenylpyridin-2-yl)thio)acetyl)-L-isoleucinate] came in with a melting point of 76 to 77 °C. The IC50 in series [1] was greater than 200 µM.

In the case of `CC[C@H](C)[C@H](NC(=O)CSc1nc(-c2ccccc2)cc(-c2ccc(F)cc2)n1)C(=O)OC` [Compound 3b, Methyl (2-((4-(4-fluorophenyl)-6-phenylpyrimidin-2-yl)thio)acetyl)-L-isoleucinate], the melting point lay in the range of 94 to 95 °C. In series [1], this compound returned an IC50 greater than 200 µM. Moreover, the CC50 at 48 h in “in vitro” is greater than 250 µM. Besides, the EC50 in series [2] is greater than 100 µM.

In turn, `COC(=O)[C@@H](NC(=O)CSc1nc(-c2ccc(F)cc2)cc(-c2ccc(F)cc2)n1)C(C)C` [Compound 3e, Methyl (2-((4,6-bis(4-fluorophenyl)pyrimidin-2-yl)thio)acetyl)-L-valinate] yielded a melting point of 174 to 175 °C. The IC50 in series [1] was greater than 200 µM. Besides, the CC50 at 48 h in “in vitro” was greater than 250 µM. Further, in series [2], the EC50 was greater than 100 µM.

`COC(=O)[C@H](Cc1ccc(O)cc1)NC(=O)CSc1nc(-c2ccc(F)cc2)cc(-c2ccc(F)cc2)n1` [Compound 3g, Methyl (2-((4,6-bis(4-fluorophenyl)pyrimidin-2-yl)thio)acetyl)-L-tyrosinate] had an IC50 in series [1] greater than 200 µM. Besides, the CC50 at 48 h in “in vitro” is greater than 250 µM. Also, the EC50 in series [2] is greater than 100 µM.

Consider `COC(=O)[C@H](Cc1ccc(O)cc1)NC(=O)CSc1cc(-c2ccccc2)cc(-c2ccc(F)cc2)n1` [Compound 3m, Methyl (2-((6-(4-fluorophenyl)-4-phenylpyridin-2-yl)thio)acetyl)-L-tyrosinate], for which the melting point was 151 to 152 °C. This compound returned an IC50 in series [1] greater than 200 µM.

Compound `Cc1cccc(NC(=O)CSc2nc(-c3ccc(Cl)cc3)cc(-c3ccc(Cl)cc3)n2)c1` [Compound 2a, 2-{[4,6-Bis(4-chlorophenyl)pyrimidin-2-yl]thio}-N-(m-tolyl)acetamide] had a melting point of 225 to 227 °C. The midpoint of inhibition in series [1], the IC50, lay at 70.8 ± 19.5 µM. This compound registered a CC50 at 48 h in “in vitro” greater than 250 µM. Moreover, the EC50 in series [2] was greater than 100 µM.

`COC(=O)[C@@H](NC(=O)CSc1nc(-c2ccccc2)cc(-c2ccc(F)cc2)n1)C(C)C` [Compound 3a, Methyl (2-((4-(4-fluorophenyl)-6-phenylpyrimidin-2-yl)thio)acetyl)-L-valinate] showed a melting point of 152 to 153 °C. Moreover, in series [1], the IC50 is greater than 200 µM. The CC50 at 48 h in the series “in vitro” was 234 ± 19 µM. Moreover, in series [2], the EC50 is greater than 100 µM.

`Cc1cccc(NC(=O)CSc2cc(-c3ccccc3)cc(Sc3ccccc3)n2)c1` [Compound 2m, 2-{[4-Phenyl-6-(phenylthio)pyridin-2-yl]thio}-N-(m-tolyl)acetamide] showed a melting point of 122 to 123 °C. The compound further returned an IC50 in series [1] of 141 ± 44 µM. Besides, in “in vitro”, the CC50 at 48 h was greater than 250 µM. The EC50 in series [2] came out at 32.3 ± 3.2 µM.

In turn, `COC(=O)[C@H](Cc1ccc(O)cc1)NC(=O)CSc1cc(-c2ccccc2)cc(-c2ccccc2)n1` [Compound 3k, Methyl (2-((4,6-diphenylpyridin-2-yl)thio)acetyl)-L-tyrosinate] had a melting point of 111 to 112 °C. For the same compound, the IC50 in series [1] is greater than 200 µM.

On to `COC(=O)[C@H](Cc1ccc(O)cc1)NC(=O)CSc1nc(-c2ccccc2)cc(-c2ccc(F)cc2)n1` [Compound 3c, Methyl (2-((4-(4-fluorophenyl)-6-phenylpyrimidin-2-yl)thio)acetyl)-L-tyrosinate], for which the melting point was 167 to 168 °C. This compound also registered an IC50 in series [1] of 172 ± 7 µM. In “in vitro”, this compound displayed a CC50 at 48 h greater than 250 µM. Moreover, in series [2], the EC50 is greater than 100 µM.

As for `Cc1cccc(NC(=O)CSc2nc(-c3ccccc3)cc(-c3ccc(Cl)cc3)n2)c1` [Compound 2c, 2-{[4-(4-Chlorophenyl)-6-phenylpyrimidin-2-yl]thio}-N-(m-tolyl)acetamide], the melting point lay in the range of 204 to 206 °C. Also, in series [1], the IC50 is 86 ± 5.3 µM. In addition, the CC50 at 48 h in “in vitro” was greater than 250 µM. Moreover, in series [2], the EC50 came out at 45.5 ± 2.1 µM.

Consider `Cc1ccc(-c2cc(-c3ccccc3)nc(SCC(=O)Nc3cccc(C)c3)c2C#N)cc1` [Compound 1a], for which, in series [3] (ELISA PA–PB1 interaction; read-out: IC50 (ELISA PA–PB1); cited from earlier work), the IC50 is 80 µM.

`COC(=O)[C@H](Cc1c[nH]cn1)NC(=O)CSc1cc(-c2ccccc2)cc(-c2ccc(F)cc2)n1` [Compound 3n, Methyl (2-((6-(4-fluorophenyl)-4-phenylpyridin-2-yl)thio)acetyl)-L-histidinate] displayed a melting point of 155 to 156 °C. The IC50 in series [1] was greater than 200 µM.

In turn, `Cc1cccc(NC(=O)CSc2nc(Sc3ccccc3)cc(-c3ccccc3)n2)c1` [Compound 2i, 2-{[4-Phenyl-6-(phenylthio)pyrimidin-2-yl]thio}-N-(m-tolyl)acetamide] showed a melting point of 127 to 128 °C. In series [1], this compound yielded an IC50 of 28.8 ± 1.5 µM. For the same compound, the CC50 at 48 h in “in vitro” was determined as 73.3 ± 9.1 µM. For the same compound, the EC50 in series [2] is 4.6 ± 0.3 µM.

For `COC(=O)[C@H](Cc1c[nH]cn1)NC(=O)CSc1nc(-c2ccc(F)cc2)cc(-c2ccc(F)cc2)n1` [Compound 3h, Methyl (2-((4,6-bis(4-fluorophenyl)pyrimidin-2-yl)thio)acetyl)-L-histidinate], the melting point fell in the range of 107 to 108 °C. Moreover, in series [1], half-maximal inhibition (IC50) was put at 108 ± 14 µM. The CC50 at 48 h in the series “in vitro” is greater than 250 µM. For the same compound, in series [2], the EC50 is greater than 100 µM.

Turning to `Cc1cccc(NC(=O)CSc2cc(-c3ccccc3)cc(-c3ccccc3)n2)c1` [Compound 1e], in series [3] (read-out: IC50 (ELISA PA–PB1); ELISA PA–PB1 interaction; cited from earlier work), the IC50 is 52.6 ± 9 µM. For the same compound, the EC50 in series [4] is 7.3 ± 1.3 µM. Further, the CC50 in the series on MDCK cells was greater than 250 µM.

For the compound `CC[C@H](C)[C@H](NC(=O)CSc1nc(-c2ccc(F)cc2)cc(-c2ccc(F)cc2)n1)C(=O)OC` [Compound 3f, Methyl (2-((4,6-bis(4-fluorophenyl)pyrimidin-2-yl)thio)acetyl)-L-isoleucinate], the melting point fell in the range of 150 to 151 °C. In series [1], this compound came in with an IC50 greater than 200 µM. The CC50 at 48 h in the series “in vitro” was greater than 250 µM. In series [2], the EC50 is greater than 100 µM.

In turn, `CC[C@H](C)[C@H](NC(=O)CSc1cc(-c2ccccc2)cc(-c2ccccc2)n1)C(=O)OC` [Compound 3j, Methyl (2-((4,6-diphenylpyridin-2-yl)thio)acetyl)-L-isoleucinate] returned a melting point of 70 to 71 °C. This compound also came in with an IC50 in series [1] greater than 200 µM.
